Assay results as given in US9388189B2, “Pyrrolotriazinone derivatives as PI3K inhibitors” (ALMIRALL, S.A., priority 2012, dated 2016).
pIC50: −log10 of the molar value.

Biological target: PI3Kδ (PI3Kd) (Homo sapiens (Human), UniProt O00329)
Experiment: PI3K HTRF enzymatic inhibition assay (cell-free), delta isoform
Conditions: read-out: IC50 PI3Kd HTRF; recombinant PI3K delta, [ATP] 15 μM, [PIP2] 2 μM, 30 min preincubation
Text: Compounds were screened for their ability to inhibit PI3Kα (PI3Ka), PI3Kβ (PI3Kb), PI3Kδ (PI3Kd) and PI3Kγ (PI3Kg) using a cell-free based PI3K HTRF™ assay (Millipore, ref. #33-017).
PI-3 Kinase HTRF kit (ref. #33-037) and the different PI3K recombinant isoforms (ref. #14-602, ref. #14-603, ref. #14-604, ref. #15-558 for Alpha, Beta, Delta and Gamma respectively) were purchased at Millipore (expressed in insect cells). ATP was purchased at Sigma Aldrich (ref. #A7699).
The compounds were pre-incubated with the enzyme for 30 min before starting of the catalytic reaction. [PIP2] was used at its Km. […] Time of assay and [Enzyme] were optimized to work in the linear range. Stop and Detection mixtures were used as specified in the Millipore PI-3 Kinase kit.
Reaction time and enzyme concentration in the assay will depend of each batch.
All experiments were analysed using Activity Base software from IDBS and the four-parameter log equation.

Chain of PI3Kδ (PI3Kd) (O00329 whole entry, canonical isoform): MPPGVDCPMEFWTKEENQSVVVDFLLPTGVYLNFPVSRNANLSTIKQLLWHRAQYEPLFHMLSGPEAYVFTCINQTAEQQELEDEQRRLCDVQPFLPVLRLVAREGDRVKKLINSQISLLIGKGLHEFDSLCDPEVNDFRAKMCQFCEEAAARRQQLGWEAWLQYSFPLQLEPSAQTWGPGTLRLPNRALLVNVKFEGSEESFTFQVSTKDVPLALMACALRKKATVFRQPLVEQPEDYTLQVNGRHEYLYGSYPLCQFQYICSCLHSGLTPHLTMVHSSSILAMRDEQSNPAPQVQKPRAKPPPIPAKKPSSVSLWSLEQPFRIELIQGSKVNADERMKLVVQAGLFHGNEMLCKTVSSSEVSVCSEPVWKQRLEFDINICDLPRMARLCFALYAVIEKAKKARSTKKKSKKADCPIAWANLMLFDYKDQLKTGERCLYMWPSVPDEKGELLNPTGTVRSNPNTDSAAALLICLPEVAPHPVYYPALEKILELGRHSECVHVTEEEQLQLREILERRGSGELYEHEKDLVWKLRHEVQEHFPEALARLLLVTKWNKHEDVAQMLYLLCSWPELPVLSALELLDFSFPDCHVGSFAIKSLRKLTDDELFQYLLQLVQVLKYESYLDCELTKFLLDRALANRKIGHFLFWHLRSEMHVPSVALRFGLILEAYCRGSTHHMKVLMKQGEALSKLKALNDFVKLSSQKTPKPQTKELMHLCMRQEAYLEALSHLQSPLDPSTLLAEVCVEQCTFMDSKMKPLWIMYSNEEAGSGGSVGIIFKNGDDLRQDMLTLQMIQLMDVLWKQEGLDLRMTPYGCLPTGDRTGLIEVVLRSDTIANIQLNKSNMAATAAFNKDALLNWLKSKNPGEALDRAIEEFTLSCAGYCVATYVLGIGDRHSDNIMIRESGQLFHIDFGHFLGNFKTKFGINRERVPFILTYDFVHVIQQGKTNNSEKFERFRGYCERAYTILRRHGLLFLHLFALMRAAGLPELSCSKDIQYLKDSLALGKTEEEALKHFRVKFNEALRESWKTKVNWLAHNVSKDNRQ
Chain of PI3Kδ (PI3Kd) (P27986 whole entry partner, canonical isoform): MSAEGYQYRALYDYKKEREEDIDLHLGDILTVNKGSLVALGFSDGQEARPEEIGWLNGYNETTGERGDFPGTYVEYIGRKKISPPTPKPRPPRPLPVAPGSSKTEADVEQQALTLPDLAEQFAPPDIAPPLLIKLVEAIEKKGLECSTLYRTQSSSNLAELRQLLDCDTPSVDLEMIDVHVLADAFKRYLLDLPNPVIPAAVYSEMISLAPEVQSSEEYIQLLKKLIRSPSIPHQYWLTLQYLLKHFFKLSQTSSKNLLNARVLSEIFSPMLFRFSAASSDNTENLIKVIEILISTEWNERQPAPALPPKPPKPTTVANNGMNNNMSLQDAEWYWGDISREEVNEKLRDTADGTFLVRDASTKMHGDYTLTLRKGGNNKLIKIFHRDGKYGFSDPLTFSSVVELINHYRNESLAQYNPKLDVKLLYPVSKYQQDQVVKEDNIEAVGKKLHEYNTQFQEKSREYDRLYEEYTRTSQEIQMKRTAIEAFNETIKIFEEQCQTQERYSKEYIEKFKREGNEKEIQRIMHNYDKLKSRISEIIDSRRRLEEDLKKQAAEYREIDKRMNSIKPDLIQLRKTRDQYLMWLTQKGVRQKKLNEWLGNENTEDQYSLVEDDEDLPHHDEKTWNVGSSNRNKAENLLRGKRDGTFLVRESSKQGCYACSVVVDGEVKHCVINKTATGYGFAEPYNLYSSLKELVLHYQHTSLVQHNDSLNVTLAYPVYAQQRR

Structure (SMILES) | pIC50
Cc1ccn2nc([C@H](C)Nc3ncnc4[nH]cc(-c5cnn(CCN(C)C)c5)c34)n(-c3ccccc3)c(=O)c12 [Example 107, (S)-2-(1-((5-(1-(2-(Dimethylamino)ethyl)-1H-pyrazol-4-yl)-7H-pyrrolo[2,3-d]pyrimidin-4-yl)amino)ethyl)-5-methyl-3-phenylpyrrolo[2,1-f][1,2,4]triazin-4(3H)-one] | 8.70
Cc1ccn2nc([C@H](C)Nc3ncnc(N)c3C(=O)N3CC[C@H](O)C3)n(-c3ccccc3)c(=O)c12 [Example 119, 3-((S)-1-((6-Amino-5-((S)-3-hydroxypyrrolidine-1-carbonyl)pyrimidin-4-yl)amino)ethyl)-8-methyl-2-phenylpyrrolo[2,1-f][1,2,4]triazin-1 (2H)-one] | 6.81
CCNc1nnc(-c2c[nH]c3ncnc(N[C@@H](C)c4nn5ccc(C)c5c(=O)n4-c4ccccc4)c23)s1 [Example 120, (S)-2-(1-((5-(5-(Ethylamino)-1,3,4-thiadiazol-2-yl)-7H-pyrrolo[2,3-d]pyrimidin-4-yl)amino)ethyl)-5-methyl-3-phenylpyrrolo[2,1-f][1,2,4]triazin-4(3H)-one] | 9.40
CC(C)N1CCN(C(=O)CCCC#Cc2ccn3nc([C@H](C)Nc4ncnc(N)c4C#N)n(-c4ccccc4)c(=O)c23)CC1 [Example 128, (S)-4-Amino-6-((1-(5-(6-(4-isopropylpiperazin-1-yl)-6-oxohex-1-yn-1-yl)-4-oxo-3-phenyl-3,4-dihydropyrrolo[2,1-f][1,2,4]triazin-2-yl)ethyl)amino)pyrimidine-5-carbonitrile] | 8.40
Cc1ccn2nc([C@H](C)Nc3ncnc4[nH]cc(-c5cnc6[nH]ccc6c5)c34)n(-c3ccccc3)c(=O)c12 [Example 139, (S)-2-(1-((5-(1H-Pyrrolo[2,3-b]pyridin-5-yl)-7H-pyrrolo[2,3-d]pyrimidin-4-yl)amino)ethyl)-5-methyl-3-phenylpyrrolo[2,1-f][1,2,4]triazin-4(3H)-one] | 9.70
Cc1ccn2nc([C@H](C)Nc3ncnc4[nH]cc(-c5cnn(CCCO)c5)c34)n(-c3ccccc3)c(=O)c12 [Example 140, (S)-2-(1-((5-(1-(3-Hydroxypropyl)-1H-pyrazol-4-yl)-7H-pyrrolo[2,3-d]pyrimidin-4-yl)amino)ethyl)-5-methyl-3-phenylpyrrolo[2,1-f][1,2,4]triazin-4(3H)-one] | 9.70
Cc1ccn2nc([C@H](C)Nc3ncnc4[nH]cc(-c5ccn(CCN6CCOCC6)n5)c34)n(-c3ccccc3)c(=O)c12 [Example 144, (S)-5-Methyl-2-(1-((5-(1-(2-morpholinoethyl)-1H-pyrazol-3-yl)-7H-pyrrolo[2,3-d]pyrimidin-4-yl)amino)ethyl)-3-phenylpyrrolo[2,1-f][1,2,4]triazin-4(3H)-one] | 8.70
Cc1ccn2nc([C@H](C)Nc3ncnc4[nH]cc(-c5ccn(CC(F)(F)F)n5)c34)n(-c3ccccc3)c(=O)c12 [Example 145, (S)-5-Methyl-3-phenyl-2-(1-((5-(1-(2,2,2-trifluoroethyl)-1H-pyrazol-3-yl)-7H-pyrrolo[2,3-d]pyrimidin-4-yl)amino)ethyl)pyrrolo[2,1-f][1,2,4]triazin-4(3H)-one] | 9.70
COc1cc(C#N)cc(-c2c[nH]c3ncnc(N[C@@H](C)c4nn5ccc(C)c5c(=O)n4-c4ccccc4)c23)c1 [Example 147, (S)-3-Methoxy-5-(4-((1-(5-methyl-4-oxo-3-phenyl-3,4-dihydropyrrolo[2,1-f][1,2,4]triazin-2-yl)ethyl)amino)-7H-pyrrolo[2,3-d]pyrimidin-5-yl)benzonitrile] | 9.40

Now from value to compound:

pIC50 | Structure (SMILES)
9.00 | Cc1ccn2nc([C@H](C)Nc3ncnc4[nH]cc(-c5cccc(Cl)c5O)c34)n(-c3ccccc3)c(=O)c12 [Example 104, (S)-2-(1-((5-(3-Chloro-2-hydroxyphenyl)-7H-pyrrolo[2,3-d]pyrimidin-4-yl)amino)ethyl)-5-methyl-3-phenylpyrrolo[2,1-f][1,2,4]triazin-4(3H)-one]
9.40 | Cc1ccn2nc([C@H](C)Nc3ncnc(N)c3-c3cccc(NS(=O)(=O)c4ccc(O)cc4)c3)n(-c3ccccc3)c(=O)c12 [Example 106, (S)—N-(3-(4-Amino-6-((1-(5-methyl-4-oxo-3-phenyl-3,4-dihydropyrrolo[2,1-f][1,2,4]triazin-2-yl)ethyl)amino)pyrimidin-5-yl)phenyl)-4-hydroxybenzenesulfonamide]
9.30 | Cc1ccn2nc([C@H](C)Nc3ncnc(N)c3-c3cncc(C(F)(F)F)c3)n(-c3ccccc3)c(=O)c12 [Example 114, (S)-2-(1-((6-Amino-5-(5-(trifluoromethyl)pyridin-3-yl)pyrimidin-4-yl)amino)ethyl)-5-methyl-3-phenylpyrrolo[2,1-f][1,2,4]triazin-4(3H)-one]
9.00 | Cc1ccn2nc([C@H](C)Nc3ncnc(N)c3-c3cnn(CCO)c3)n(-c3ccccc3)c(=O)c12 [Example 116, (S)-2-(1-((6-Amino-5-(1-(2-hydroxyethyl)-1H-pyrazol-4-yl)pyrimidin-4-yl)amino)ethyl)-5-methyl-3-phenylpyrrolo[2,1-f][1,2,4]triazin-4(3H)-one]
9.15 | Cc1ccn2nc([C@H](C)Nc3ncnc4[nH]cc(-c5cc(O)cc(NS(=O)(=O)c6ccc(O)cc6)c5)c34)n(-c3ccccc3)c(=O)c12 [Example 125, (S)-4-Hydroxy-N-(3-hydroxy-5-(4-((1-(5-methyl-4-oxo-3-phenyl-3,4-dihydropyrrolo[2,1-f][1,2,4]triazin-2-yl)ethyl)amino)-7H-pyrrolo[2,3-d]pyrimidin-5-yl)phenyl)benzenesulfonamide]
9.40 | Cc1ccn2nc([C@H](C)Nc3ncnc(N)c3-c3cncc(OC(F)F)c3)n(-c3ccccc3)c(=O)c12 [Example 127, (S)-2-(1-((6-Amino-5-(5-(difluoromethoxy)pyridin-3-yl)pyrimidin-4-yl)amino)ethyl)-5-methyl-3-phenylpyrrolo[2,1-f][1,2,4]triazin-4(3H)-one]
9.00 | Cc1ccn2nc([C@H](C)Nc3ncnc(N)c3-c3cc(O)cc(NS(=O)(=O)c4ccc(F)cc4F)c3)n(-c3ccccc3)c(=O)c12 [Example 130, (S)—N-(3-(4-Amino-6-((1-(5-methyl-4-oxo-3-phenyl-3,4-dihydropyrrolo[2,1-f][1,2,4]triazin-2-yl)ethyl)amino)pyrimidin-5-yl)-5-hydroxyphenyl)-2,4-difluorobenzenesulfonamide]
8.70 | Cc1ccn2nc([C@H](C)Nc3ncnc(N)c3-c3cncc(OCC(F)(F)F)c3)n(-c3ccccc3)c(=O)c12 [Example 132, (S)-2-(1-((6-Amino-5-(5-(2,2,2-trifluoroethoxyl)pyridin-3-yl)pyrimidin-4-yl)amino)ethyl)-5-methyl-3-phenylpyrrolo[2,1-f][1,2,4]triazin-4(3H)-one]
8.40 | COc1cc(-c2c(N)ncnc2N[C@@H](C)c2nn3ccc(C)c3c(=O)n2-c2ccccc2)cc(C(F)(F)F)n1 [Example 137, (S)-2-(1-((6-Amino-5-(2-methoxy-6-(trifluoromethyl)pyridin-4-yl)pyrimidin-4-yl)amino)ethyl)-5-methyl-3-phenylpyrrolo[2,1-f][1,2,4]triazin-4(3H)-one]
